In patent US20220169660A1, “CYCLIC AMINO-PYRAZINECARBOXAMIDE COMPOUNDS AND USES THEREOF” (SILVERBACK THERAPEUTICS, INC., priority 2019, published 2022):

How the values were obtained:
TGFBR2 = molecular target: T1, TGFBR2 (Homo sapiens, UniProt P37173); test: TGFBR2 RBC enzyme assay (Reaction Biology Corp.); assay type: biochemical
T1 construct: purchased Reaction Biology Corp
Description: Compounds of the disclosure were assayed by Reaction Biology Corp. using the TGFBR2 RBC enzyme assay.

[1] = tested on: TGFβ/SMAD Singling Pathway SBE reporter cell line; test: TGFβ reporter assay (in vitro small molecule screening); assay type: cell-based; settings: SBE luciferase reporter cells, TGFβ stimulation, 18 h, luminescence
Description: TGFβ/SMAD Singling Pathway SBE reporter cell line was obtained from BPS Bioscience. Cells were passed, expanded, and stored in liquid nitrogen as per the supplier's instructions with the exception that growth media is changed to DMEM-C with Geneticin (DMEM supplemented with 10% fetal bovine serum, 1×NEAA, 1 mM Pyruvate, 2 mM glutamine, 50 μg/mL penicillin, 50 U/mL streptomycin and 400 μg/mL of Geneticin). The assay media was MEM supplemented with […] fetal bovine serum, 1×NEAA, 1 mM Pyruvate, 50 μg/mL penicillin and 50 U/mL streptomycin.
Test samples (at desired concentrations diluted in assay media) were added to a 96-well assay plate, 20 μL per well. Reporter cells were harvested from the tissue culture flasks by incubation in small quantity of PBS at 37° C. for two minutes after the media in the flask is removed and cells rinsed with PBS. Cells were counted and diluted in the assay media at approximately 0.5×10^6 cells/mL and then 80 μL/well of cells were added to the assay plate containing the 20 μL/well of test samples (or media only), and incubated for approximately 5-6 hours at 37° C. in a 5% CO2 humidified incubator. After that time, 15 μL of TGFβ diluted to 12 ng/mL in the assay media was added to the plate. Controls included TGFβ titration (from 50 to 0 ng/mL) without inhibitors, and media only (without cells, inhibitor or TGFβ). Plates were incubated at 37° C. in a 5% CO2 humidified incubator for 18 h. Luciferase substrate solution is subsequently added at 100 μL per well, incubated in the dark at room temperature for 15 min, and luminescence is measured using a luminometer. EC50 values and curve fits were obtained using Prism (GraphPad Software).

T1 sequence (P37173 23-567): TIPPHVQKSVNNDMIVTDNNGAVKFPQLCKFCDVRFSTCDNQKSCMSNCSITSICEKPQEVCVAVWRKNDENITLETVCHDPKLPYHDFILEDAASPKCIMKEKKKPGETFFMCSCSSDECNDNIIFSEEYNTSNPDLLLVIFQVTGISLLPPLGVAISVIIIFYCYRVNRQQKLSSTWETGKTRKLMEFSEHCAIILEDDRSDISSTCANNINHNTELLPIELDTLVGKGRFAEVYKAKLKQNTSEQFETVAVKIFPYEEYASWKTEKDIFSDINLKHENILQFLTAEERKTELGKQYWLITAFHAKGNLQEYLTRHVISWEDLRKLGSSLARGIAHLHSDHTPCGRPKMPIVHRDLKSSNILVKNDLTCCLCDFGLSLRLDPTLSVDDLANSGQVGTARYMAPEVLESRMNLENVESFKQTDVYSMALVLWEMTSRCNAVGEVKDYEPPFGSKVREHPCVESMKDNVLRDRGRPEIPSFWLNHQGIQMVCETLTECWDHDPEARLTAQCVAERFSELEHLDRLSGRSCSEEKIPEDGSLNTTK

Structure (SMILES)	EC50 (TGFBR2) [nM]	EC50 [1] [nM]
CN1CCOc2cccc(c2)-c2cnc(N)c(n2)C(=O)Nc2cnccc21 [Compound 11, 2^5-amino-6-methyl-9-oxa-4,6-diaza-2(2,6)-pyrazina-5(3,4)-pyridina-1(1,3)-benzenacyclononaphan-3-one]	1 to 100	1 to 1000
Cc1ccc2cc1OCCCN(C)c1ccncc1NC(=O)c1nc-2cnc1N [Compound 12, 2^5-amino-1^4,6-dimethyl-10-oxa-4,6-diaza-2(2,6)-pyrazina-5(3,4)-pyridina-1(1,3)-benzenacyclodecaphan-3-one]	1 to 100	1 to 1000
CCN1CCCOc2cccc(c2)-c2cnc(N)c(n2)C(=O)Nc2cnccc21 [Compound 13, 2^5-amino-6-ethyl-10-oxa-4,6-diaza-2(2,6)-pyrazina-5(3,4)-pyridina-1(1,3)-benzenacyclodecaphan-3-one]	100 to 1000	1 to 1000
CN1CCCOc2cc(OCCCN3C(=O)c4ccccc4C3=O)cc(c2)-c2cnc(N)c(n2)C(=O)Nc2cnccc21 [Compound 14, 2-(3-((2^5-amino-6-methyl-3-oxo-10-oxa-4,6-diaza-2(2,6)-pyrazina-5(3,4)-pyridina-1(1,3)-benzenacyclodecaphane-1^5-yl)oxy)propyl)isoindoline-1,3-dione]	1 to 100	1 to 1000
CN1CCOCc2cccc(c2)-c2cnc(N)c(n2)C(=O)Nc2cnccc21 [Compound 15, 2^5-amino-6-methyl-9-oxa-4,6-diaza-2(2,6)-pyrazina-5(3,4)-pyridina-1(1,3)-benzenacyclodecaphan-3-one]	1 to 100	1 to 1000
CN1CCCOc2cc(OCCCN)cc(c2)-c2cnc(N)c(n2)C(=O)Nc2cnccc21 [Compound 16, 2^5-amino-1^5-(3-aminopropoxy)-6-methyl-10-oxa-4,6-diaza-2(2,6)-pyrazina-5(3,4)-pyridina-1(1,3)-benzenacyclodecaphan-3-one]	1 to 100	1 to 1000
CCCN1CCCOc2cccc(c2)-c2cnc(N)c(n2)C(=O)Nc2cnccc21 [Compound 17, 2^5-amino-6-propyl-10-oxa-4,6-diaza-2(2,6)-pyrazina-5(3,4)-pyridina-1(1,3)-benzenacyclodecaphan-3-one]	1 to 100	1 to 1000
CC1CCOc2cccc(c2)-c2cnc(N)c(n2)C(=O)Nc2cnccc2N1C (stereo not shown) [Compound 18, 2^5-amino-6,7-dimethyl-10-oxa-4,6-diaza-2(2,6)-pyrazina-5(3,4)-pyridina-1(1,3)-benzenacyclodecaphan-3-one]	1 to 100	1 to 1000
CC1CCN(C)c2ccncc2NC(=O)c2nc(cnc2N)-c2cccc(c2)O1 (stereo not shown) [Compound 19, 2^5-amino-6,9-dimethyl-10-oxa-4,6-diaza-2(2,6)-pyrazina-5(3,4)-pyridina-1(1,3)-benzenacyclodecaphan-3-one]	1 to 100	1 to 1000
CC1OCCN(C)c2ccncc2NC(=O)c2nc(cnc2N)-c2cccc1c2 (stereo not shown) [Compound 20]	1 to 100	1 to 1000
Nc1ncc2nc1C(=O)Nc1cnccc1OCCCOc1cccc-2c1 [Compound 21, 2^5-amino-6,10-dioxa-4-aza-2(2,6)-pyrazina-5(3,4)-pyridina-1(1,3)-benzenacyclodecaphan-3-one]	> 1000	> 5000
Nc1ncc2nc1C(=O)Nc1cnccc1N1CCC(CC1)COc1cccc-2c1 [Compound 22, 1^5-amino-3-oxa-7-aza-1(2,6)-pyrazina-6(4,3)-pyridina-5(4,1)-piperidina-2(1,3)-benzenacyclooctaphan-8-one]	> 1000	> 5000
Nc1ncc2nc1C(=O)Nc1cnccc1N1CCC(CC1)Oc1cccc-2c1 [Compound 23, 1^5-amino-3-oxa-6-aza-1(2,6)-pyrazina-5(4,3)-pyridina-4(4,1)-piperidina-2(1,3)-benzenacycloheptaphan-7-one]	> 1000	> 5000
Nc1ncc2nc1C(=O)Nc1cnccc1N1CCC(COc3cccc-2c3)C1 (stereo not shown) [Compound 25, 1^5-amino-3-oxa-7-aza-1(2,6)-pyrazina-6(4,3)-pyridina-5(3,1)-pyrrolidina-2(1,3)-benzenacyclooctaphan-8-one]	1 to 100	1 to 1000
CN1CCC(=O)Nc2cccc(c2)-c2cnc(N)c(n2)C(=O)Nc2cnccc21 [Compound 26, 2^5-amino-6-methyl-4,6,10-triaza-2(2,6)-pyrazina-5(3,4)-pyridina-1(1,3)-benzenacyclodecaphene-3,9-dione]	1 to 100	1 to 1000
CN1CCC(=O)N(C)c2cccc(c2)-c2cnc(N)c(n2)C(=O)Nc2cnccc21 [Compound 27, 2^5-amino-6,10-dimethyl-4,6,10-triaza-2(2,6)-pyrazina-5(3,4)-pyridina-1(1,3)-benzenacyclodecaphane-3,9-dione]	1 to 100	1 to 1000
CN1CCNC(=O)c2cccc(c2)-c2cnc(N)c(n2)C(=O)Nc2cnccc21 [Compound 30, 2^5-amino-6-methyl-4,6,9-triaza-2(2,6)-pyrazina-5(3,4)-pyridina-1(1,3)-benzenacyclodecaphane-3,10-dione]	> 1000	> 5000
CN1CCCNC(=O)c2cccc(c2)-c2cnc(N)c(n2)C(=O)Nc2cnccc21 [Compound 31, 2^5-amino-6-methyl-4,6,10-triaza-2(2,6)-pyrazina-5(3,4)-pyridina-1(1,3)-benzenacycloundecaphane-3,11-dione]	100 to 1000	1000 to 5000
CN1CCCCOc2ccccc2-c2cnc(N)c(n2)C(=O)Nc2cnccc21 [Compound 34, 2^5-amino-6-methyl-11-oxa-4,6-diaza-2(2,6)-pyrazina-5(3,4)-pyridina-1(1,2)-benzenacycloundecaphan-3-one]	100 to 1000	1000 to 5000
Nc1ncc2nc1C(=O)Nc1cnccc1O[C@H]1CC[C@H](CC1)Oc1cccc-2c1 [Compound 43, (4^1,4^4-cis)-1^5-amino-3,5-dioxa-7-aza-1(2,6)-pyrazina-6(4,3)-pyridina-2(1,3)-benzena-4(1,4)-cyclohexanacyclooctaphan-8-one]	> 1000	> 5000
Nc1ncc2nc1C(=O)Nc1cnccc1OCCOc1ccc(Br)c-2c1 [Compound 49, 2^5-amino-16-bromo-6,9-dioxa-4-aza-2(2,6)-pyrazina-5(3,4)-pyridina-1(1,3)-benzenacyclononaphan-3-one]	1 to 100	1 to 1000
Nc1ncc2nc1C(=O)Nc1cnccc1OCCOc1cccc-2c1 [Compound 50, 2^5-amino-6,9-dioxa-4-aza-2(2,6)-pyrazina-5(3,4)-pyridina-1(1,3)-benzenacyclononaphan-3-one]	1 to 100	1 to 1000
Nc1ncc2nc1C(=O)Nc1cnccc1SCCCOc1ccc(Br)c-2c1 [Compound 51, 2^5-amino-1^6-bromo-10-oxa-6-thia-4-aza-2(2,6)-pyrazina-5(3,4)-pyridina-1(1,3)-benzenacyclodecaphan-3-one]	1 to 100	1 to 1000
CN1CCCNC(=O)c2cc(ccc2OCCCN)-c2cnc(N)c(n2)C(=O)Nc2cnccc21 [Compound 53, 2^5-amino-1^4-(3-aminopropoxy)-6-methyl-4,6,10-triaza-2(2,6)-pyrazina-5(3,4)-pyridina-1(1,3)-benzenacycloundecaphane-3,11-dione]	100 to 1000	> 5000
CN1CCNC(=O)c2cc(ccc2OCCCN)-c2cnc(N)c(n2)C(=O)Nc2cnccc21 [Compound 55, 2^5-amino-1^4-(3-aminopropoxy)-6-methyl-4,6,9-triaza-2(2,6)-pyrazina-5(3,4)-pyridina-1(1,3)-benzenacyclodecaphane-3,10-dione]	100 to 1000	> 5000
CN1CCN(C)c2ccncc2NC(=O)c2nc(cnc2N)-c2ccc(OCCCN)c(c2)C1=O [Compound 56, 2^5-amino-1^4-(3-aminopropoxy)-6,9-dimethyl-4,6,9-triaza-2(2,6)-pyrazina-5(3,4)-pyridina-1(1,3)-benzenacyclodecaphene-3,10-dione]	1 to 100	1000 to 5000
CN1C[C@@H](CNCc2ccccc2)Oc2ccccc2-c2cnc(N)c(n2)C(=O)Nc2cnccc21 [Compound 57, (R)-2^5-amino-8-((benzylamino)methyl)-6-methyl-9-oxa-4,6-diaza-2(2,6)-pyrazin-5(3,4)-pyridina-1(1,2)-benzenacyclononaphan-3-one]	> 1000	1000 to 5000
CN1C[C@H](CN)Oc2ccccc2-c2cnc(N)c(n2)C(=O)Nc2cnccc21 [Compound 58, (S)-2^5-amino-8-(aminomethyl)-6-methyl-9-oxa-4,6-diaza-2(2,6)-pyrazina-5(3,4)-pyridina-1(1,2)-benzenacyclononaphan-3-one]	> 1000	1000 to 5000
CN1C[C@H](CNCc2ccccc2)Oc2ccccc2-c2cnc(N)c(n2)C(=O)Nc2cnccc21 [Compound 59, (S)-2^5-amino-8-((benzylamino)methyl)-6-methyl-9-oxa-4,6-diaza-2(2,6)-pyrazina-5(3,4)-pyridina-1(1,2)-benzenacyclononaphan-3-one]	> 1000	> 5000
